Measurements taken from ChEMBL document CHEMBL1155823, “The effect of 5-alkyl modification on the biological activity of pyrrolo[2,3-d]pyrimidine containing classical and nonclassical antifolates as inhibitors of dihydrofolate reductase and as antitumor and/or antiopportunistic infection agents” (J Med Chem, 2008).
pIC50: −log10 of the molar value.

Tests used:
[1] = molecular target: T1, Bifunctional dihydrofolate reductase-thymidylate synthase (Toxoplasma gondii) (UniProt Q07422); test: Inhibition of Toxoplasma gondii thymidylate synthase at >[…] uM
T1 sequence (whole entry): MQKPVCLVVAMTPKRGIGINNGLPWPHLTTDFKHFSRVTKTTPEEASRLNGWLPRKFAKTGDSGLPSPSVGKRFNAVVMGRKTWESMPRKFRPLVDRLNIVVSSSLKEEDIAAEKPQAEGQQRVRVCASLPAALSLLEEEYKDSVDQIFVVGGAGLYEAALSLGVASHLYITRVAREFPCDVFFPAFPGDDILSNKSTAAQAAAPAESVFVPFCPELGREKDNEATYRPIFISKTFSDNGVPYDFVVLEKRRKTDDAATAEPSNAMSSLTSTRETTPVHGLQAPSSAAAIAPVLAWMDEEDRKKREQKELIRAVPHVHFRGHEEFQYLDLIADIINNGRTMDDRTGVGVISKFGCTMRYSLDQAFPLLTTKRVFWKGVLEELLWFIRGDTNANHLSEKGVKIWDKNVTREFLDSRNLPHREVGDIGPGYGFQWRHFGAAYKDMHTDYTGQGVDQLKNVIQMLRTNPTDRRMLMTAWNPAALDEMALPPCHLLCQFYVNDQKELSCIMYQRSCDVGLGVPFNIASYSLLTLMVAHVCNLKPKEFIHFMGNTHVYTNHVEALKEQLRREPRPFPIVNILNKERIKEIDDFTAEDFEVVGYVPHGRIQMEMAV

[2] = molecular target: T2, Bifunctional dihydrofolate reductase-thymidylate synthase (Toxoplasma gondii, UniProt Q07422); test: Inhibition of Toxoplasma gondii thymidylate synthase
T2 sequence (Q07422 whole entry): T1 sequence (whole entry)

Dihydrofolate reductase [3] = molecular target: T3, Dihydrofolate reductase (Homo sapiens, UniProt P00374)
T3 sequence (P00374 whole entry): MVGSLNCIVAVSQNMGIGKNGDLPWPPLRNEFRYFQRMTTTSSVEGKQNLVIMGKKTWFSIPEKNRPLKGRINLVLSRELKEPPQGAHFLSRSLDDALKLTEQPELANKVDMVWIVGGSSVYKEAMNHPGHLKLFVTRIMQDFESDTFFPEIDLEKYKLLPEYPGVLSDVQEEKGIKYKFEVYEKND

Thymidylate synthase [4] = molecular target: T4, Thymidylate synthase (Homo sapiens, UniProt P04818); test: Inhibition of human thymidylate synthase
Target sequence in this assay (P04818 whole entry): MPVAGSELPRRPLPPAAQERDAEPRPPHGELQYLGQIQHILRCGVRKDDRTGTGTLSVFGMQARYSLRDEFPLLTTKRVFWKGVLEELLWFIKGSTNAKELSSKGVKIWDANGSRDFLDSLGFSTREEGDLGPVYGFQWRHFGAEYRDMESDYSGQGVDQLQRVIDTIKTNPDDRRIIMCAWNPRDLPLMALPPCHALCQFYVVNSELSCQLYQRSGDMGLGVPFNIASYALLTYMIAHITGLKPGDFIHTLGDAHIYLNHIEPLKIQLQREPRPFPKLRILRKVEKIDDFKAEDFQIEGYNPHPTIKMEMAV

[5] = molecular target: T2, Bifunctional dihydrofolate reductase-thymidylate synthase; test: Inhibition of Toxoplasma gondii dihydrofolate reductase
[6] = molecular target: T5, Dihydrofolate reductase (Homo sapiens) (UniProt P00374); test: Inhibition of human dihydrofolate reductase at >28 uM
T5 sequence (whole entry): T3 sequence (P00374 whole entry)

Thymidylate synthase [7] = molecular target: T4, Thymidylate synthase; test: Inhibition of human thymidylate synthase at >23 uM
Target sequence in this assay (P04818 2-313 limits assumed): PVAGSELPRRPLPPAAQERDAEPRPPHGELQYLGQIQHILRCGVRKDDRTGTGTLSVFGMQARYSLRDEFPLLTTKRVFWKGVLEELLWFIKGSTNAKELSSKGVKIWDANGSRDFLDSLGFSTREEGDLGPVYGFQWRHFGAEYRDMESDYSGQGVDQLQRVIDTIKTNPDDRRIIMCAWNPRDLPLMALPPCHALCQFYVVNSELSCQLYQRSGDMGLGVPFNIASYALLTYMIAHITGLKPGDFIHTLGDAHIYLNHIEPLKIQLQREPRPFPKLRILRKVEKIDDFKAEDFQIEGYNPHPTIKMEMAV

Thymidylate synthase [8] = molecular target: Thymidylate synthase (Escherichia coli, UniProt C3SWJ7); test: Inhibition of Escherichia coli thymidylate synthase
Dihydrofolate reductase [9] = molecular target: T6, Dihydrofolate reductase (Rattus norvegicus, UniProt Q920D2)
T6 sequence (Q920D2 whole entry): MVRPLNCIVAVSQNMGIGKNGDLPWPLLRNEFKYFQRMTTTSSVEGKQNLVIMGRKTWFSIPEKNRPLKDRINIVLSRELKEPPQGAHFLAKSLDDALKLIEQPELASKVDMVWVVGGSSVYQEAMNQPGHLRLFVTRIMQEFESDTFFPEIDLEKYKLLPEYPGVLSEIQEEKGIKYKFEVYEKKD

[10] = molecular target: Thymidylate synthase (Escherichia coli) (UniProt C3SWJ7); test: Inhibition of Escherichia coli thymidylate synthase at >[…] uM
Dihydrofolate reductase [11] = molecular target: T7, Dihydrofolate reductase (Pneumocystis carinii, UniProt P16184)
T7 sequence (P16184 whole entry): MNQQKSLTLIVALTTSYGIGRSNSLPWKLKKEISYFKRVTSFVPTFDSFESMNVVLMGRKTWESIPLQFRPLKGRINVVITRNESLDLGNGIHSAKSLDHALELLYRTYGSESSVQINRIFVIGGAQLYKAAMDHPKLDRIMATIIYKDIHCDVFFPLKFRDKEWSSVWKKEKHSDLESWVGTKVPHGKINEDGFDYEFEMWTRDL

Dihydrofolate reductase [12] = molecular target: T7, Dihydrofolate reductase; remark: listed apart in the source
Dihydrofolate reductase [13] = molecular target: T6, Dihydrofolate reductase; remark: listed apart in the source
[14] = molecular target: T5, Dihydrofolate reductase (Homo sapiens); test: Inhibition of human dihydrofolate reductase at >30 uM
Thymidylate synthase [15] = molecular target: T4, Thymidylate synthase; test: Inhibition of human thymidylate synthase at >[…] uM
Target sequence in this assay (P04818 2-313 limits assumed): as the sequence (P04818 2-313 limits assumed) above

[16] = molecular target: T5, Dihydrofolate reductase (Homo sapiens); test: Inhibition of human dihydrofolate reductase at >[…] uM
[17] = molecular target: Dihydrofolate reductase (Pneumocystis carinii) (UniProt P16184); test: Inhibition of Pneumocystis carinii DHFR at 22 uM using dihydrofolic acid substrate and NADPH cofactor
[18] = molecular target: Thymidylate synthase (Escherichia coli) (UniProt C3SWJ7); test: Inhibition of Escherichia coli thymidylate synthase at >14 uM
Thymidylate synthase [19] = molecular target: T4, Thymidylate synthase; test: Inhibition of human thymidylate synthase at >14 uM
Target sequence in this assay (P04818 2-313 limits assumed): as the sequence (P04818 2-313 limits assumed) above

Sequence of Thymidylate synthase (Escherichia coli, UniProt C3SWJ7) (C3SWJ7 whole entry): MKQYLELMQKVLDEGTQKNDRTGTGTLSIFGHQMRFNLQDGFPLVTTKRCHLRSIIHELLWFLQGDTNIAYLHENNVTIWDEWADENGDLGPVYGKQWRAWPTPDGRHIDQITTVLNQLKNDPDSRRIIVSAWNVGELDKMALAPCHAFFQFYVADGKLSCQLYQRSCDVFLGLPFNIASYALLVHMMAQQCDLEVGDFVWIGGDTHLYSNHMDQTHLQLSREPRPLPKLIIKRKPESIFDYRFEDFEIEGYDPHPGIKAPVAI
Sequence of Thymidylate synthase (Escherichia coli) (C3SWJ7 1-264): as the sequence (C3SWJ7 whole entry) above

pIC50 (Dihydrofolate reductase [3]) | pIC50 (Thymidylate synthase [4]) | inhibition [6] [%] | inhibition (Thymidylate synthase [7]) [%] | pIC50 (Thymidylate synthase [8]) | pIC50 (Dihydrofolate reductase [9]) | inhibition [10] [%] | pIC50 (Dihydrofolate reductase [11]) | pIC50 (Dihydrofolate reductase [12]) | pIC50 (Dihydrofolate reductase [13]) | inhibition [14] [%] | inhibition (Thymidylate synthase [15]) [%] | inhibition [16] [%] | inhibition [17] [%] | inhibition [18] [%] | inhibition (Thymidylate synthase [19]) [%] | SMILES | inhibition [1] [%] | pIC50 [2] | pIC50 [5]
< 4.55 | < 4.64 | 0 | 0 | < 5.64 | 4.30 | 0 | 4.45 |  |  |  |  |  |  |  |  | COc1ccc(OC)c(Sc2[nH]c3nc(N)nc(N)c3c2C(C)C)c1 | 0 | < 5.64 | 5.85
 |  |  |  |  |  |  |  | 5.22 | 5.39 |  |  |  |  |  |  | CCc1c(Sc2cc(OC)ccc2OC)[nH]c2nc(N)nc(N)c12 |  |  | 
< 4.52 | < 4.89 |  |  | < 4.89 | 5.90 | 0 | 5.38 |  |  | 15 |  |  |  |  |  | CCCc1c(Sc2ccc(OC)cc2)[nH]c2nc(N)nc(N)c12 | 12 | < 4.89 | 6.64
< 4.52 | < 4.89 |  |  | < 4.89 | 4.83 | 0 |  |  |  | 10 |  |  |  |  |  | Cc1cccc(C)c1Sc1[nH]c2nc(N)nc(N)c2c1C(C)C | 0 | < 4.89 | 6.52
 |  |  |  |  |  |  |  |  |  |  |  |  |  |  |  | COc1ccc(OC)c(Cc2sc3nc(N)nc(N)c3c2C)c1 |  |  | 7.15
< 4.54 | < 4.62 |  |  | < 5.62 | 5.68 | 0 | 5.15 |  |  |  | 39 |  |  |  |  | CC(C)c1c(Sc2ccc3ccccc3c2)[nH]c2nc(N)nc(N)c12 |  | < 5.62 | 5.82
< 4.57 | < 4.64 |  | 14 | < 5.64 | 4.87 | 0 | 4.96 |  |  |  |  | 0 |  |  |  | CC(C)c1c(Sc2ccc(Cl)c(Cl)c2)[nH]c2nc(N)nc(N)c12 | 0 | < 5.64 | 5.85
< 4.59 | < 4.66 |  |  | < 5.66 | 5.62 |  |  | 4.66 |  |  |  | 37 | 14 |  |  | CC(C)c1c(Sc2c(Cl)cccc2Cl)[nH]c2nc(N)nc(N)c12 |  | < 5.66 | 6.28
4.48 | < 4.85 |  |  | < 4.85 |  |  | 5.38 |  |  |  |  |  |  | 0 | 0 | CCCc1c(Sc2ccccc2)[nH]c2nc(N)nc(N)c12 |  | < 5.85 | 6.92

SMILES | pIC50 (Dihydrofolate reductase [3]) | pIC50 (Thymidylate synthase [4]) | inhibition [6] [%] | inhibition (Thymidylate synthase [7]) [%] | pIC50 (Thymidylate synthase [8]) | pIC50 (Dihydrofolate reductase [9]) | inhibition [10] [%] | pIC50 (Dihydrofolate reductase [11]) | pIC50 (Dihydrofolate reductase [12]) | pIC50 (Dihydrofolate reductase [13]) | inhibition [14] [%] | inhibition (Thymidylate synthase [15]) [%] | inhibition [16] [%] | inhibition [17] [%] | inhibition [18] [%] | inhibition (Thymidylate synthase [19]) [%] | inhibition [1] [%] | pIC50 [2] | pIC50 [5]
COc1ccc(Sc2[nH]c3nc(N)nc(N)c3c2C(C)C)cc1 | 4.52 | < 4.60 |  |  | < 5.60 | 5.72 | 0 |  |  |  |  |  |  |  |  |  |  | < 5.60 | 6.22
